Key:
[1] = biological target: human Class I PI3 kinase α (Homo sapiens (Human), UniProt P42336); experiment: PI3-Kinase Promega ADP-Glo Max assay, α isoform; assay type: biochemical; settings: 20 nM kinase, 3 mM ATP, 500 uM diC8-PtdInsP; read-out: Promega α PI3K IC50
Procedure: (§1) Promega ADP-Glo Max assay kit (Cat. No. V7002) was utilized to determine IC50 values for α, β, δ and γ isoforms of human Class I PI3 kinases (Millipore). […] Reactions were incubated at room temperature for 2 hours followed by addition of 25 uL of stop solution. After a 40-minute incubation at room temperature, 50 uL of Promega detection mix was added followed by incubation for 1 hour at room temperature. Plates were then read on Envision plate reader in luminescence mode. Data was converted to % inhibition using the following equation below: [formula] where S is the sample luminescence, Pos is a positive control without added PI3K, Neg is the negative control without added compound. Data was then plotted as % inhibition vs compound concentration.

[2] = biological target: human Class I PI3 kinase β (Homo sapiens (Human), UniProt P42338); experiment: PI3-Kinase Promega ADP-Glo Max assay, β isoform; assay type: biochemical; settings: 40 nM kinase, 3 mM ATP, 500 uM diC8-PtdInsP; read-out: Promega β PI3K IC50
Procedure: Promega ADP-Glo Max assay kit (Cat. No. V7002) was utilized to determine IC50 values for α, β, δ and γ isoforms of human Class I PI3 kinases (Millipore). […] Reactions were incubated at room temperature for 2 hours followed by addition of 25 uL of stop solution. After a 40-minute incubation at room temperature, 50 uL of Promega detection mix was added followed by incubation for 1 hour at room temperature. Plates were then read on Envision plate reader in luminescence mode. Data was converted to % inhibition using the following equation below:

[3] = biological target: human Class I PI3 kinase δ (Homo sapiens (Human), UniProt O00329); experiment: PI3-Kinase Promega ADP-Glo Max assay, δ isoform; assay type: biochemical; settings: 20 nM kinase, 3 mM ATP, 500 uM diC8-PtdInsP; read-out: Promega δ PI3K IC50
Procedure: as §1

[4] = biological target: human Class I PI3 kinase γ (Homo sapiens (Human), UniProt P48736); experiment: PI3-Kinase Promega ADP-Glo Max assay, γ isoform; assay type: biochemical; settings: 40 nM kinase, 3 mM ATP, 500 uM diC8-PtdInsP; read-out: Promega γ PI3K IC50
Procedure: Promega ADP-Glo Max assay kit (Cat. No. V7002) was utilized to determine IC50 values for α, β, δ and γ isoforms of human Class I PI3 kinases (Millipore). Samples of kinase (20 nM α or δ, 40 nM β or γ isoform) were incubated with compound for 15 minutes at room temperature in reaction buffer (15 mM HEPES pH 7.4, 20 mM NaCl, 1 mM EGTA, 0.02% Tween 20, 10 mM MgCl2, 0.2 mg/mL bovine-γ-globulins) followed by addition of ATP/diC8-PtdInsP mixture to give final concentrations of 3 mM ATP and 500 uM diC8-PtdInsP. Reactions were incubated at room temperature for 2 hours followed by addition of 25 uL of stop solution. After a 40-minute incubation at room temperature, 50 uL of Promega detection mix was added followed by incubation for 1 hour at room temperature. Plates were then read on Envision plate reader in luminescence mode. Data was converted to % inhibition using the following equation below:
[formula] where S is the sample luminescence, Pos is a positive control without added PI3K, Neg is the negative control without added compound. Data was then plotted as % inhibition vs compound concentration.
Certain compounds provided herein were tested in PI3-Kinase Promega Assay using procedures as described above to determine IC50 values for α, β, δ and/or γ isoforms.

[5] = biological target: p110 δ (RAJI cells) (Homo sapiens (Human), UniProt O00329); experiment: PI3K-δ selective cellular assay: phospho-AKT in anti-human IgM stimulated RAJI cells; assay type: cell-based; settings: serum-starved RAJI cells stimulated with anti-human IgM
Text: A compound's ability in selectively inhibiting PI3K-δ can be assessed using RAJI cells, i.e., B lymphocyte cells derived from lymphoma patients. Briefly, serum-starved RAJI cells are stimulated with anti-human IgM, thereby causing signaling through the B-cell receptors, as described in, for example, He et al., Leukemia Research (2009) 33: 798-802. B-cell receptor signaling is important for the activation, differentiation, and survival of B cells and certain B-cell derived cancers. Reduction of phospho-AKT is indicative of compounds that may inhibit B-cell proliferation and function in certain diseases. […] Certain compounds provided herein were tested in RAJI cell model using procedures as described above.

[6] = biological target: p110 γ (RAW264.7 cells) (Mus musculus (Mouse), UniProt Q9JHG7); experiment: PI3K-γ selective cellular assay: phospho-AKT in C5a stimulated RAW264.7 macrophages; assay type: cell-based; settings: serum-starved RAW264.7 cells stimulated with C5a
Procedure: Certain compounds provided herein were tested in RAW 264.7 cell model using procedures as described above.

Chain of p110 δ (RAJI cells) (O00329 whole entry): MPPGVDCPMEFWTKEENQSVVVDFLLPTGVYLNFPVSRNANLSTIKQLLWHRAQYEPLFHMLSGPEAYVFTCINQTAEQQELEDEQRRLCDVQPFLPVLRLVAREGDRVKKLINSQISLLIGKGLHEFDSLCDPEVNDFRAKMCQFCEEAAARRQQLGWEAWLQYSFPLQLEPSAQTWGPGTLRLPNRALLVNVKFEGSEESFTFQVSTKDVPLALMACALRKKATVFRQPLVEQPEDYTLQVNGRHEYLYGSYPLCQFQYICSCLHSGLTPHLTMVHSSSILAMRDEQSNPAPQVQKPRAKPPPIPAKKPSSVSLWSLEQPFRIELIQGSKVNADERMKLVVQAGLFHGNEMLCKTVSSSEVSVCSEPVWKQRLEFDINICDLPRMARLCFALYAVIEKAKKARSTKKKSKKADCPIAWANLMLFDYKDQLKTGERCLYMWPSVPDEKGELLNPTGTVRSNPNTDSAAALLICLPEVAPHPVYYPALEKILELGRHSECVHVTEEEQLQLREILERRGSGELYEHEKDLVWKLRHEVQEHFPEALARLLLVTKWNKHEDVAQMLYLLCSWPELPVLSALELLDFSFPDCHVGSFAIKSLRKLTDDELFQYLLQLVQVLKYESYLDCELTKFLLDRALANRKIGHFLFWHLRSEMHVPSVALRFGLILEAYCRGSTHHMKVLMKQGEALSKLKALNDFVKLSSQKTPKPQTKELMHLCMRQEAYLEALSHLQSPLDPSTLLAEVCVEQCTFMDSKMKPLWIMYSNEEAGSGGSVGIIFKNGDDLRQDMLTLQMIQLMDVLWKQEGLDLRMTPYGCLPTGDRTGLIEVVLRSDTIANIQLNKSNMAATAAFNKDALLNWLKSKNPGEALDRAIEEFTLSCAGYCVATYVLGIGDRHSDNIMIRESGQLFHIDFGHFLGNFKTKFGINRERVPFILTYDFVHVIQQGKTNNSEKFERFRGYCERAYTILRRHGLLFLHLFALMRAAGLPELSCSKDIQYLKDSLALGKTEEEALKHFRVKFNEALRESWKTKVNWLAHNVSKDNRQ
Chain of p110 δ (RAJI cells) (P27986 whole entry partner): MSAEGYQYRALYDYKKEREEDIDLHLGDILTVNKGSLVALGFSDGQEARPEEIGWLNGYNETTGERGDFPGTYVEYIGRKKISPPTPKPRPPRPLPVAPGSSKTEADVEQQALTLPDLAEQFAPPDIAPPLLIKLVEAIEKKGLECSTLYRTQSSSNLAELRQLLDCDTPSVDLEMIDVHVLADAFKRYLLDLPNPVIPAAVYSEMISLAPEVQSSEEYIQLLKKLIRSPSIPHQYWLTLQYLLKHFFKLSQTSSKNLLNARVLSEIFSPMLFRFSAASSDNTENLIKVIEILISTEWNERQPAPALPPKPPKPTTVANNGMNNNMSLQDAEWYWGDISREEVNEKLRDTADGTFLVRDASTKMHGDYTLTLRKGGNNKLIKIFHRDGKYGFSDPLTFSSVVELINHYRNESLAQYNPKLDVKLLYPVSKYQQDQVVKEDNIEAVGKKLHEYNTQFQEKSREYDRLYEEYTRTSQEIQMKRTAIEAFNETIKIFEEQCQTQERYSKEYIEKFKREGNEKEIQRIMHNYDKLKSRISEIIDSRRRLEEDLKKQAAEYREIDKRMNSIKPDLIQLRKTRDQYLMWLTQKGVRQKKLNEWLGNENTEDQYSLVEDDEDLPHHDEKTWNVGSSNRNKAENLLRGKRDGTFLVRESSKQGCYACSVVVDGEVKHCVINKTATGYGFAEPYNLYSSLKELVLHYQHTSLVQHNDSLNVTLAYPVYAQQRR
Chain of human Class I PI3 kinase δ (O00329 whole entry, canonical isoform): as the sequence (O00329 whole entry) above
Chain of human Class I PI3 kinase δ (P27986 whole entry partner, canonical isoform): as the sequence (P27986 whole entry partner) above
Chain of human Class I PI3 kinase β (P42338 whole entry, looked up, canonical isoform): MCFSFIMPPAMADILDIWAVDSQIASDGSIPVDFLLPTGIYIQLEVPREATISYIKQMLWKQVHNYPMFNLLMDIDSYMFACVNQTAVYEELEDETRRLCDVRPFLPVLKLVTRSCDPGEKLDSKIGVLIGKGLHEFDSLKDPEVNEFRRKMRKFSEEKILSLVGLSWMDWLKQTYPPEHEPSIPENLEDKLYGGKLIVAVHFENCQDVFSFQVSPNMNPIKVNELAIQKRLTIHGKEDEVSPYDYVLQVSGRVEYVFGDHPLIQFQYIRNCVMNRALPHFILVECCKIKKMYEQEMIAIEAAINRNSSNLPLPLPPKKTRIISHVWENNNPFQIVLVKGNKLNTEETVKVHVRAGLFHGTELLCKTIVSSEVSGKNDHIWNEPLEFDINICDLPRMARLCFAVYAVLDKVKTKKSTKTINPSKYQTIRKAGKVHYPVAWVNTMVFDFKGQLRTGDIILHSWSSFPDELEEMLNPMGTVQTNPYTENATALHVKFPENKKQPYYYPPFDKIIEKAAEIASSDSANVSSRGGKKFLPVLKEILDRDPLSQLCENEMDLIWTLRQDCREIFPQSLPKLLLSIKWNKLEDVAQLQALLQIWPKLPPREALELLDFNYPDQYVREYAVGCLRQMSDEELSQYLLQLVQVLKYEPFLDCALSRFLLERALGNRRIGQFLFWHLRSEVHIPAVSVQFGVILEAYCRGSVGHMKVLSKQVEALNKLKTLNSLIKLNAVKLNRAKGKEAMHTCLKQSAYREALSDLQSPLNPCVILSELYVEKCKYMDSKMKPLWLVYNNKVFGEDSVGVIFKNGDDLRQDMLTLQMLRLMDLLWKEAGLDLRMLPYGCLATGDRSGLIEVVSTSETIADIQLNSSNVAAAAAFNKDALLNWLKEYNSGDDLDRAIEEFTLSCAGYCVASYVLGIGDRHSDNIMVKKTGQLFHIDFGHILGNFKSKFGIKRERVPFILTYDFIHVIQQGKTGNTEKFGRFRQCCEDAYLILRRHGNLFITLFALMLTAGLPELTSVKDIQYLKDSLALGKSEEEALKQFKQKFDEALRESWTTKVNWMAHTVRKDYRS
Chain of human Class I PI3 kinase β (P27986 whole entry partner, looked up, canonical isoform): as the sequence (P27986 whole entry partner) above
Chain of human Class I PI3 kinase γ (P48736 whole entry, canonical isoform): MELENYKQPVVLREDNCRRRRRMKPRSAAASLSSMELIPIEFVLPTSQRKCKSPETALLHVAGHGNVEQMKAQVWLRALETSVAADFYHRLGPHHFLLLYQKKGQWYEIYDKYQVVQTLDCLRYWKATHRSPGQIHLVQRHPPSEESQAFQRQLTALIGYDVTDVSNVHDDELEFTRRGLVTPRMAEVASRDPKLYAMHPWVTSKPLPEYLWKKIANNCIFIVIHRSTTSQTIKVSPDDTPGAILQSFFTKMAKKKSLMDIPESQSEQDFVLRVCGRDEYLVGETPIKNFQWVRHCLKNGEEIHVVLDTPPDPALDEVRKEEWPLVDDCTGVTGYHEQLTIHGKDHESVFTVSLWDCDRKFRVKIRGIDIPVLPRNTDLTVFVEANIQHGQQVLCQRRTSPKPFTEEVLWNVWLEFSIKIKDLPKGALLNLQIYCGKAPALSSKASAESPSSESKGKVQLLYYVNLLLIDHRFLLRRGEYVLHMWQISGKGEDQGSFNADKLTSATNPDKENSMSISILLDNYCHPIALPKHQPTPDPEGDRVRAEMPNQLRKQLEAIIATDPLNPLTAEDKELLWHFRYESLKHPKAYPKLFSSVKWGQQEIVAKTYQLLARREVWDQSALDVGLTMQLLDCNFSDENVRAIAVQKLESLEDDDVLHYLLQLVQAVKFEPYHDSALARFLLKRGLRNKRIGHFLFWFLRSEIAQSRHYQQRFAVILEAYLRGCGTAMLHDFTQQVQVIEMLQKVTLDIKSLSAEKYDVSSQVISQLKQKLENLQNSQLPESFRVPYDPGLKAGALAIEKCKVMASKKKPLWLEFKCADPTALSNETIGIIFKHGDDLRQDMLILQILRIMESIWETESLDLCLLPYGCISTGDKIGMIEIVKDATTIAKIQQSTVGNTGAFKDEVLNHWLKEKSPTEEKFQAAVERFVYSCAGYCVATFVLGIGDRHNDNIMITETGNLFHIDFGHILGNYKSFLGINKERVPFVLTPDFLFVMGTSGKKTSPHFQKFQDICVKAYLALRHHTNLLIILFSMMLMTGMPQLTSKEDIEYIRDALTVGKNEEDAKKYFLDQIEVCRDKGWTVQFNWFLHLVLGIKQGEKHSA

C[C@H](NC(=O)c1c(N)nn2cccnc12)c1cc2cccc(Cl)c2c(=O)n1-c1ccccc1O [Compound 68]
IC50 [1]: 1000 to 10000 nM | IC50 [2]: 100 to 500 nM | IC50 [3]: 500 to 1000 nM | IC50 [4]: 10 to 100 nM | IC50 [5]: 1 to 10 nM | IC50 [6]: 1 to 10 nM
